Results as given in patent US10105443B2, “Sustained-release drug carrier composition” (POLYPID LTD., priority 2008, dated 2018).

Key:
Type in all cases: physicochemical
[1] = Release of drug from bone filler particles coated with the matrix composition following hydration; details: for kinetics of co-release from the surface of coated bone particles: surrounding medium 5% PBS at 37° C., FIG. 15; for period of constant release of DOX: bone filler particles (BioOss) coated with matrix PLGA 85:15, cholesterol, DSPC (18:0), with or without alpha-tocopherol
Description: • 50-75 KDa PLGA (poly (lactic-co-glycolic acid, 85:15 ratio)) • Cholesterol-50%-100% w/w vs. PLGA. The mixture is mixed. The entire process is performed at room temperature. A fat-polymer combination matrix is thus obtained. II. Preparation of Second Solution The following materials are mixed with a volatile organic solvent (methanol and ethyl acetate) • a. […] A phosphatidylcholine, —1,2-distearoyl-sn-glycero-3-phosphocholine (DSPC) present as 300-700% w/w vs. PLGA. The mixture is mixed well. The entire process is conducted at room temperature. When phosphatidylcholine having long saturated fatty chains is used (e.g. DSPC) the process is typically performed at higher temperatures of about 40-50° C. No water is required in the mixture. […] Stirring is continued for 1-5 minutes. The entire process is performed at a temperature of 20-50° C. depending of the lipid used. IV—Evaporation Following Surface Coating In order to coat bone filler particles, the particles are added to the mixture of stage III followed by evaporation of the volatile organic solvents. The entire process is performed at a temperature of 40-50° C. The ratio between the volume and the percentage of solids in the mixture of stage III and the mass of the bone particles will determine the release period of the drug post hydration of the coated particles. V—Vacuum Drying Coated bone particles are vacuum-dried for storage. […] The rate of sustained release of Doxycycline hyclate encapsulated within the matrix composition of the present invention was measured and compared to the release rate of the drug from bone particles socked with free DOX solution (having the same amount of DOX).
The release profile of DOX from a mixture of coated and non coated bone (xenografts bovine—commercial—BioOss) particles was measured. The coated particles were mixed with similar plain (not-coated) bone particles in a ratio of 1:4. […] The formulation in this study comprised PLGA 75:25 and DPPC.
The release of DOX from bone particles (12 mg/sample) coated with different mass of the DOX containing matrix formulation was compared. Following hydration (5% serum at 37° C.) the duration of release of 90% of the initial DOX amount in the formulation was monitored (FIG. 10).

[2] = Influence of polymer/lipid composition of the matrix on release rate of the entrapped agent; details: FIG. 8
Description: The influence of different polymer/lipid compositions on the release rate of a given drug was measured using fluorescein entrapped within a matrix compositing PLGA (75:25), DPPC as the main phospholipid and varying amounts of lauric acid (LA) and phosphatidylethanolamine (PE) having saturated fatty acid moieties of at least 14 carbons. […] The release lasted between about 20 to about 110 days when LA:PE w/w % ratio was varied between 10:10 to 0:0 respectively (vs. the total mass of the formulation). The drug release profile from bone particles coated with matrix formulation comprising PE versus bone particles coated with matrix formulation comprising cholesterol was compared.
The fact that different polymer/lipid compositions influence the release rate can be used to fulfill different clinical needs. […] In contrast, when the antibiotic drug, DOX, was associated with a slow degrading polymer such as PLGA 85:15 and a 18:0 phospholipid such as DSPC, complete release of the drug was accomplished after more than 50 days (FIG. 8).

[3] = Drug release from absorbable gelatin sponge containing the sustained release formulation (HPLC); details: 5% serum at 37° C.
Description: A solution containing PLGA—75:25, PC 16:0, cholesterol 10% and Doxycycline hyclate (DOX) 10% was injected into the center of the absorbable gelatin sponge foam cube (Gelatamp. ROEKO). The overall content of DOX in the injected formulation was 380 μg in 25 μl. The solvent was evaporated in a 37° C. incubator and subsequently over night under vacuum. As a control, the common use of pre-wetting with a similar dose of DOX (380 μg) solution was injected into the gelatin sponge tube. Following hydration (5% serum at 37° C.) the release of DOX from the gelatin sponge cube into the surrounding was detected and quantified by HPLC.

Row | time to full release of the drug ([2]; PLGA 50:50 and 14:0 phospholipid DMPC) | share of encapsulated DOX released following zero order kinetics ([1]; DOX encapsulated in the formulation, FIG. 2) | period of constant release of DOX [1] | period of constant release of DOX ([1]; listed as Doxycycline hyclate) | release kinetics ([1]; bone filler particles coated with matrix PLGA 85:15, cholesterol, DSPC, FIG. 2) | drug released in 3 hours after hydration ([1]; bone particles coated with PLGA 75:25 / DPPC formulation, mixed 1:4 with non-coated particles, 5% serum at 37° C.) | release profile, matrix comprising PE (DMPE) versus matrix comprising cholesterol ([1]; coated bone particles, 5% serum at 37° C., FIG. 7) | effect of presence of non-coated particles on release of DOX from the formulation ([1]; coated:non-coated bone particles 1:4, 5% serum at 37° C., PLGA 75:25 and DPPC) | drug released in 3 hours after hydration ([1]; uncoated bone particles soaked with free DOX (control), 5% serum at 37° C.) | time to complete release of the drug ([2]; PLGA 85:15 and 18:0 phospholipid DSPC) | DOX released immediately into the medium ([3]; control: gelatin sponge pre-wetted with DOX solution (380 μg)) | DOX released into the medium immediately after hydration ([3]; gelatin sponge (Gelatamp) with PLGA 75:25, PC 16:0, cholesterol 10%, DOX 10%, 380 μg DOX) | period of gradual release of the rest of the drug ([3]; gelatin sponge with PLGA 75:25, PC 16:0, cholesterol 10%, DOX 10%) | Compound | kinetics of co-release from the surface of coated bone particles [1] | dependence of duration of release of 90% of DOX on formulation mass ([1]; bone particles 12 mg/sample coated with different mass of formulation, 5% serum at 37° C., FIG. 10)
1 | – | – | – | – | – | – | – | – | – | – | – | – | – | CCCCCCCCCCCCCCCC(=O)OC[C@H](COP(=O)([O-])OCC[N+](C)(C)C)OC(=O)CCCCCNc1ccc([N+](=O)[O-])c2nonc12 [NBD-PC, 1-palmitoyl-2-{6-[(7-nitro-2-1,3-benzoxadiazol-4-yl)amino]hexanoyl}-sn-glycero-3-phosphocholine] | zero order kinetics | –
2 | ≤ 10 days | – | – | – | – | – | – | – | – | – | – | – | – | CC(C(=O)O)c1ccc(-c2ccccc2)c(F)c1 (stereo not shown) [NSAID, Flurbiprofen] | – | –
3 | – | ~70% | at least 3 weeks | about three | zero order kinetics | about 15% | behaves similarly | not affected | 88% | more than 50 days | total amount | about 40% | more than 7 days | Doxycycline hyclate | zero order kinetics | linearly depended on the formulation mass
